Experimental data published in patent US12509434B2, “Optically resolved Trolox intermediate and method for producing same” (PTC THERAPEUTICS, INC., priority 2020, dated 2025).

What was measured:
[1] = Solubility of the crystals in ethyl acetate solvent (reslurry, content of supernatant solution); assay type: physicochemical
Method: Solubility of RS-Trolox⋅R-PEA, R-Trolox⋅R-PEA, and S-Trolox⋅R-PEA to Ethyl Acetate Solvent
Each crystal was reslurried by adding ethyl acetate. The solubility was calculated from analyzing the content of supernatant solution of each reaction solution at each temperature.

[2] = Solubility of the crystals in amide-based solvents NMP and DMA (reslurry, content of supernatant solution); assay type: physicochemical; conditions: 20 °C
Method: Solubility of R-Trolox⋅R-PEA, S-Trolox⋅R-PEA, and S-Trolox to NMP and DMA
Each crystal was reslurried by adding an amide-based solvent (NMP, DMA). The solubility was calculated from analyzing the content of supernatant solution of each reaction solution at each temperature.

| Structure (SMILES) | Solubility to ethyl acetate solvent ([1]; 0 °C) [%] | Solubility to ethyl acetate solvent ([1]; 15 °C) [%] | Solubility to ethyl acetate solvent ([1]; 30 °C) [%] | Solubility to ethyl acetate solvent ([1]; 45 °C) [%] | Solubility to ethyl acetate solvent ([1]; 60 °C) [%] | Solubility to ethyl acetate solvent ([1]; 75 °C) [%] | Solubility [%] DMA [2] [%] | Solubility [%] NMP [2] [%] |
| --- | --- | --- | --- | --- | --- | --- | --- | --- |
| C[C@@H](N)c1ccccc1.Cc1c(C)c2c(c(C)c1O)CCC(C)(C(=O)O)O2 (racemic) [rac-Trolox] | 0.02 | 0.02 | 0.07 | 0.38 | 1.08 | 2.82 | – | – |
| Cc1c(C)c2c(c(C)c1O)CC[C@](C)(C(=O)O)O2 [R-Trolox] | 0.07 | 0.09 | 0.10 | 0.40 | 0.78 | 0.83 | 0.4 | 0.5 |
| Cc1c(C)c2c(c(C)c1O)CC[C@@](C)(C(=O)O)O2 [S-Trolox (Free), (S)-6-hydroxy-2,5,7,8-tetramethylchroman-2-carboxylic acid] | – | – | – | – | – | – | ≥10 | ≥10 |
| C[C@@H](N)c1ccccc1.Cc1c(C)c2c(c(C)c1O)CC[C@@](C)(C(=O)O)O2 [S-Trolox] | 2.6 | 9.9 | 14.2 | – | – | – | ≥10 | ≥10 |
